Data as given in ChEMBL document CHEMBL3734744, “Synthesis, 3D pharmacophore, QSAR and docking studies of novel quinazoline derivatives with nitric oxide release moiety as preferential COX-2 inhibitors” (Medchemcomm, 2015).

Tests used:
Rattus norvegicus [1] = test: Antiinflammatory activity in Sprague-Dawley rat assessed as inhibition of carrageenan-induced paw edema at 80 mg/kg, po administered 30 mins prior to carrageenan challenge measured at 2 hrs by plethysmometer; type: functional
Rattus norvegicus [2] = test: Antiinflammatory activity in Sprague-Dawley rat assessed as inhibition of carrageenan-induced paw edema at 80 mg/kg, po administered 30 mins prior to carrageenan challenge measured at 1 hr by plethysmometer; type: functional
[3] = target: T1, Prostaglandin G/H synthase 1 (Ovis aries, UniProt P05979); test: Inhibition of ovine COX1 after 5 mins by enzyme immuno assay
T1 sequence (P05979 whole entry): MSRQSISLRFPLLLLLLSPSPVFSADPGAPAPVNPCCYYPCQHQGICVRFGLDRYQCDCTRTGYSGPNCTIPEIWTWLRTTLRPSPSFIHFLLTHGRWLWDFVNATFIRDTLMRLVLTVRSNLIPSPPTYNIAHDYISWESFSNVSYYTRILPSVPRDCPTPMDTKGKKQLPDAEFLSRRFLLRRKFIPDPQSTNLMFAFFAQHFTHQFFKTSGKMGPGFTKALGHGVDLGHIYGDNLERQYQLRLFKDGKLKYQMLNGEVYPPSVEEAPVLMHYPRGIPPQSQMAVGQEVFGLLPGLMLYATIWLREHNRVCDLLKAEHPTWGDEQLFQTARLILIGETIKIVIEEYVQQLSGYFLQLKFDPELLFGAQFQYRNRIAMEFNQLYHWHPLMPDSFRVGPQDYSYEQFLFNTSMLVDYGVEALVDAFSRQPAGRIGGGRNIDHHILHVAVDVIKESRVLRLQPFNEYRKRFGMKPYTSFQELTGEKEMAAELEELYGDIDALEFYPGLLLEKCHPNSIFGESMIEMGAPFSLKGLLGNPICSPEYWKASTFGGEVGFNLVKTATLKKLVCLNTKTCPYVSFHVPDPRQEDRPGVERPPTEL

Rattus norvegicus [4] = test: Antiinflammatory activity in Sprague-Dawley rat assessed as inhibition of carrageenan-induced paw edema at 80 mg/kg, po administered 30 mins prior to carrageenan challenge measured at 3 hrs by plethysmometer relative to meloxicam; type: functional
[5] = target: T2, Prostaglandin G/H synthase 2 (Ovis aries, UniProt P79208); test: Inhibition of ovine COX2 after 5 mins by enzyme immuno assay
T2 sequence (P79208 whole entry): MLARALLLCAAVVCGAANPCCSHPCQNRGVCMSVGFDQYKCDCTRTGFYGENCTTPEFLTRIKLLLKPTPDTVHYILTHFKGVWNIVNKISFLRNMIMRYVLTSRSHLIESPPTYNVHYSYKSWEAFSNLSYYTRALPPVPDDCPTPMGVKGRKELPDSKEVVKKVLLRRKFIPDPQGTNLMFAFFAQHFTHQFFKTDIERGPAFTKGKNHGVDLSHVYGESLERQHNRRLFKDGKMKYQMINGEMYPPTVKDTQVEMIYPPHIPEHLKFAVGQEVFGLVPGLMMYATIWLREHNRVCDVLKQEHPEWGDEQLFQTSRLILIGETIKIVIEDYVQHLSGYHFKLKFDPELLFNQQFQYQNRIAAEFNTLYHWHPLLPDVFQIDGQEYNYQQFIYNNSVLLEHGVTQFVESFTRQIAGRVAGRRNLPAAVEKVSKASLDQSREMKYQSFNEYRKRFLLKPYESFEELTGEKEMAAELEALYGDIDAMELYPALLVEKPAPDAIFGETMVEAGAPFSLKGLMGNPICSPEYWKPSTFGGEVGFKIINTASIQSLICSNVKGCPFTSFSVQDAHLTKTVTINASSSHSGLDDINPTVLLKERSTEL

Rattus norvegicus [6] = test: Antiinflammatory activity in Sprague-Dawley rat assessed as inhibition of carrageenan-induced paw edema at 80 mg/kg, po administered 30 mins prior to carrageenan challenge measured at 3 hrs by plethysmometer; type: functional
Ovis aries = species on record: Ovis aries; test: Selectivity index, ratio of IC50 for ovine COX1 to IC50 for ovine COX2
Rattus norvegicus [7] = test: Gastrointestinal toxicity in Wistar albino rat assessed as ulcer index at 5 mg/kg/day, po administered for 3 days measured after 2 hrs post last dose; type: organism-based; settings: in vivo
Rattus norvegicus [8] = test: Gastrointestinal toxicity in Wistar albino rat assessed as irregular mucosa at 5 mg/kg/day, po administered for 3 days measured after 2 hrs post last dose by haematoxylin/eosin staining-based microscopic analysis; type: organism-based; settings: in vivo
Rattus norvegicus [9] = test: Gastrointestinal toxicity in Wistar albino rat assessed as ulceration at 5 mg/kg/day, po administered for 3 days measured after 2 hrs post last dose by haematoxylin/eosin staining-based microscopic analysis; type: organism-based; settings: in vivo
Rattus norvegicus [10] = test: Gastrointestinal toxicity in Wistar albino rat assessed as ulcer index at 10 mg/kg/day, po administered for 3 days measured after 2 hrs post last dose; type: organism-based; settings: in vivo
Serum = test: Induction of nitric oxide release in rat serum by Griess assay; type: functional
Rattus norvegicus [11] = test: Gastrointestinal toxicity in Wistar albino rat assessed as ulceration at 10 mg/kg/day, po administered for 3 days measured after 2 hrs post last dose by haematoxylin/eosin staining-based microscopic analysis; type: organism-based; settings: in vivo
Rattus norvegicus [12] = test: Gastrointestinal toxicity in Wistar albino rat assessed as intact mucosa at 10 mg/kg/day, po administered for 3 days measured after 2 hrs post last dose by haematoxylin/eosin staining-based microscopic analysis; type: organism-based; settings: in vivo
Rattus norvegicus [13] = test: Gastrointestinal toxicity in Wistar albino rat assessed as mild erosion at 10 mg/kg/day, po administered for 3 days measured after 2 hrs post last dose by haematoxylin/eosin staining-based microscopic analysis; type: organism-based; settings: in vivo

IC50 [3] [µM] | IC50 [5] [µM] | Ratio IC50 (Ovis aries) | Structure (SMILES) | inhibition in vivo at 80 mg/kg (Rattus norvegicus [1]) [%] | inhibition in vivo at 80 mg/kg (Rattus norvegicus [2]) [%] | inhibition in vivo at 80 mg/kg (Rattus norvegicus [4]) [%] | inhibition in vivo at 80 mg/kg (Rattus norvegicus [6]) [%] | UI (Rattus norvegicus [7]) | Activity (Rattus norvegicus [8]) | Activity (Rattus norvegicus [9]) | UI (Rattus norvegicus [10]) | Activity (Serum) [µmol/L] | Activity (Rattus norvegicus [11]) | Activity (Rattus norvegicus [12]) | Activity (Rattus norvegicus [13])
98.6 | 42.1 | 2.41 | O=c1c2ccccc2nc(CO[N+](=O)[O-])n1NS(=O)(=O)c1ccccc1 | 11.6 | 2.4 | 55 | 34 |  |  |  | 0.5 | 16.73 | Non-toxic |  | 
22.8 | 4.41 | 5.16 | CC(=O)Nc1ccc(S(=O)(=O)Nn2c(C)nc3ccccc3c2=O)cc1 | 37.4 | 20.8 | 95.7 | 59.2 |  |  |  |  |  |  |  | 
32.7 | 5.75 | 5.67 | Cc1ccc(S(=O)(=O)Nn2c(C)nc3ccccc3c2=O)cc1 | 24.2 | 3.2 | 83.9 | 51.9 |  |  |  |  |  |  |  | 
44.6 | 12.5 | 3.57 | CC(C)(C)NC(=O)Nn1c(CO[N+](=O)[O-])nc2ccccc2c1=O | 14.1 | 6.4 | 70.6 | 43.7 |  |  |  | 0.9 | 10.76 |  |  | Toxic
24.4 | 5.93 | 4.11 | O=C(Nc1ccccc1)Nn1c(CO[N+](=O)[O-])nc2ccccc2c1=O | 25.8 | 6.4 | 82.9 | 51.3 |  |  |  | 0.6 | 22.8 | Non-toxic |  | 
38.8 | 11.7 | 3.32 | Cc1ccc(S(=O)(=O)Nn2c(CO[N+](=O)[O-])nc3ccccc3c2=O)cc1 | 15.7 | 6.4 | 71.6 | 44.3 |  |  |  | 1 | 10.4 | Toxic |  | 
30.1 | 8.58 | 3.5 | Cc1nc2ccccc2c(=O)n1NS(=O)(=O)c1ccccc1 | 22.2 | 5.6 | 77.2 | 47.8 |  |  |  |  |  |  |  | 
24.1 | 3.59 | 6.72 | CC(=O)Nc1ccc(S(=O)(=O)Nn2c(CO[N+](=O)[O-])nc3ccccc3c2=O)cc1 | 40.4 | 15.2 | > 100 | 64.8 |  |  |  | 1.3 | 7.9 | Toxic |  | 

Continued, molecule first:

Structure (SMILES) | IC50 [3] [µM] | IC50 [5] [µM] | Ratio IC50 (Ovis aries) | inhibition in vivo at 80 mg/kg (Rattus norvegicus [1]) [%] | inhibition in vivo at 80 mg/kg (Rattus norvegicus [2]) [%] | inhibition in vivo at 80 mg/kg (Rattus norvegicus [4]) [%] | inhibition in vivo at 80 mg/kg (Rattus norvegicus [6]) [%] | UI (Rattus norvegicus [7]) | Activity (Rattus norvegicus [8]) | Activity (Rattus norvegicus [9]) | UI (Rattus norvegicus [10]) | Activity (Serum) [µmol/L] | Activity (Rattus norvegicus [11]) | Activity (Rattus norvegicus [12]) | Activity (Rattus norvegicus [13])
Cc1nc2ccccc2c(=O)n1NC(=S)Nc1ccccc1 | 18.9 | 3.67 | 5.13 | 42.9 | 14.4 | 100 | 61.9 |  |  |  |  |  |  |  | 
COc1ccc2c(c1)c(CC(=O)O)c(C)n2C(=O)c1ccc(Cl)cc1 [INDOMETHACIN] |  |  |  |  |  |  |  | 1.8 | Toxic | Toxic |  |  |  |  | 
O=C(NC1CCCCC1)Nn1c(CO[N+](=O)[O-])nc2ccccc2c1=O | 34.6 | 6.86 | 5.03 | 18.7 | 8 | 80.6 | 49.9 |  |  |  | 0.4 | 28.53 |  | Non-toxic | 
Cc1nc2ccccc2c(=O)n1NC(=O)NC1CCCCC1 | 23.8 | 5 | 4.74 | 41.9 | 12 | 88.6 | 54.8 |  |  |  |  |  |  |  | 
Cc1cnc(NC(=O)C2=C(O)c3ccccc3S(=O)(=O)N2C)s1 [MELOXICAM] |  |  |  | 43.4 | 20.8 |  | 61.9 |  |  |  | 0.6 |  | Toxic |  | 
Cc1nc2ccccc2c(=O)n1NC(=O)NC(C)(C)C | 34.5 | 6.53 | 5.28 | 29.8 | 10.4 | 82.5 | 51 |  |  |  |  |  |  |  | 
